Source: US12304899B2, “Factor XI activation inhibitors” (Merck Sharp & Dohme LLC, priority 2019, dated 2025)

Target: T1, Human coagulation factor (F)XI (Homo sapiens, UniProt P03951)
T1 construct: purchased Haematologic Technologies Inc. (FXI); Enzyme Research Laboratories (FXIIa) HCXI-150 (FXI); HFXIIa (FXIIa)
Test: Inhibition of FXIIa mediated activation of FXI (activation of human Factor XI to XIa by human Factor α-XIIa)
Format: biochemical
Conditions: human FXI pre-incubated with compound 30 min at 22° C., activation by human FXIIa 60 min, z-GPR-AFC substrate fluorescence, 4 parameter logistic fit; read-out: Inhibition of FXIIa meditated activation of FXI
Experimental: Inhibition of FXIIa Mediated Activation of FXI
Activation of Human Factor XI to XIa by Human Factor α-XIIa
The assay was performed in 50 mM HEPES, 150 mM NaCl, 5 mM CaCl2, 0.1% PEG-8000, pH 7.4 buffer in black, flat-bottom, polystyrene microplates (Corning, Cat #3573). Serial dilutions (10-point, 3.333-fold) of the test compounds delivered as 10 mM DMSO stocks were prepared in the Labcyte Echo-qualified PP 384 well microplates (Labcyte, Cat #P-05525). Human coagulation factor (F)XI (Haematologic Technologies Inc., Cat #HCXI-150, concentration 46 nM, 19.5 uL) was pre-incubated with 0.5 uL of the test compounds for 30 min at 22° C. The activation was initiated by addition of 10 uL of human coagulation factor (F)XIIa (Enzyme Research Laboratories, Cat #HFXIIa, concentration 30 nM) and the reaction proceeded for 60 min at 22° C., after which it was quenched by addition of a selective inhibitor of FXIIa (Compound 54 in International Patent Publication WO2018093695) concentration 600 uM in DMSO, 1 uL). 10 min after the quench, 29 uL of z-GPR-AFC substrate (Sigma, Cat #C0980-10 MG, concentration 200 uM) was added into each well and the detection reaction proceeded for 60 min at 22° C. Fluorescence at 405/510 nm was measured in end-point mode using an Envision plate-reader (Perkin Elmer). IDBS Activity Base XE (ABase) analysis using 4 parameter logistic fit was performed to determine Minimum, Maximum, EC50, and Slope Factor for each compound.

T1 sequence (P03951 19-625): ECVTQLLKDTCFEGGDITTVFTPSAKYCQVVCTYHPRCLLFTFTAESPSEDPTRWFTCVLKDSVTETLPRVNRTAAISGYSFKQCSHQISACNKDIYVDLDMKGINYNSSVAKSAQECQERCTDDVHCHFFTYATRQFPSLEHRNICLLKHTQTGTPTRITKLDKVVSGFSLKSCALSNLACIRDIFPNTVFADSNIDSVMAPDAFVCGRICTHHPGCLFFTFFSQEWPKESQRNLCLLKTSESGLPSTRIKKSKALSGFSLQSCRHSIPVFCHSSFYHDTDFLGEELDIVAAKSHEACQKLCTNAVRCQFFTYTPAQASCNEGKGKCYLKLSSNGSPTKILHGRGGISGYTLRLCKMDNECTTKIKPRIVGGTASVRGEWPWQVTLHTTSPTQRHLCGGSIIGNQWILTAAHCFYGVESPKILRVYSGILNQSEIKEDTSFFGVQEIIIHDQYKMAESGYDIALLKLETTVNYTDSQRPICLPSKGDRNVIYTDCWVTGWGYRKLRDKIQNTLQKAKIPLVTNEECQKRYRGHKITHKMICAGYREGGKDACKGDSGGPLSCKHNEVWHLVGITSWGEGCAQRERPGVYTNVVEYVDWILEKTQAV

| SMILES | EC50 [nM] |
| --- | --- |
| Cc1c(COc2ccc3nc(C(=O)N4CCC(C)(O)C4)cc(C(=O)N4CCCCC4)c3c2)ccc2c1COC2=O (single isomer, unassigned) [Example 5b, 5-(((2-(3-hydroxy-3-methylpyrrolidine-1-carbonyl)-4-(piperidine-1-carbonyl)quinolin-6-yl)oxy)methyl)-4-methylisobenzofuran-1(3H)-one] | 38.8 |
| N#CC1(c2ccccc2)CCN(C(=O)c2cc(C(=O)N3CCCCC3)c3cc(OCc4ccc([N+](=O)[O-])cc4)ccc3n2)CC1 [Example 37, 1-(6-((4-nitrobenzyl)oxy)-4-(piperidine-1-carbonyl)quin-oline-2-carbonyl)-4-phenyl-piperidine-4-carbonitrile] | 48.2 |
| O=C(c1cc(C(=O)N2CCCCC2)c2cc(OCc3nc4ccccc4s3)ccc2n1)N1CC[C@H]2OCCC[C@@H]2C1 [Example 70] | 40.2 |
| Cc1c(COc2ccc3nc(C(=O)N4CCC(n5cccn5)CC4)cc(C(=O)N4CCCCC4)c3c2)ccc2c1COC2=O [Example 18, 5-(((2-(4-(1H-pyrazol-1-yl)-piperidine-1-carbonyl)-4-(piperidine-1-carbonyl)-quinolin-6-yl)oxy)methyl)-4-methylisobenzofuran-1(3H)-one] | 21.9 |
| N#Cc1cccc(COc2ccc3nc(C(=O)N4CCC(C#N)(c5ccccc5)CC4)cc(C(=O)N4CCCCC4)c3c2)c1 [Example 32, 1-(6-((3-cyanobenzyl)oxy)-4-(piperidine-1-carbonyl)quin-oline-2-carbonyl)-4-phenyl-piperidine-4-carbonitrile] | 46.9 |
| N#CC1(c2ccccc2)CCN(C(=O)c2cc(C(=O)N3CCCCC3)c3cc(OCCCn4cccc4)ccc3n2)CC1 [Example 46, 1-(6-(3-(1H-pyrrol-1-yl)-propoxy)-4-(piperidine-1-car-bonyl)quinoline-2-carbonyl)-4-phenylpiperidine-4-carbonitrile] | 33.7 |
| N#CC1(c2ccccc2)CCN(C(=O)c2cc(C(=O)N3CCCCC3)c3cc(OCc4ccc(OC(F)(F)F)cc4)ccc3n2)CC1 [Example 35, 4-phenyl-1-(4-(piperidine-1-carbonyl)-6-((4-(trifluoro-methoxy)benzyl)oxy)quin-oline-2-carbonyl)piperidine-4-carbonitrile] | 37.7 |
| N#CC1(c2ccccc2)CCN(C(=O)c2cc(C(=O)N3CCCCC3)c3cc(OCc4ccc(OC(F)F)cc4)ccc3n2)CC1 [Example 36, 1-(6-((4-(difluoro-l3-meth-oxy)phenyl)methoxy)-4-(piperidine-1-carbonyl)quin-oline-2-carbonyl)-4-phenyl-piperidine-4-carbonitrile] | 29.1 |
| N#CC1(n2cccn2)CCN(C(=O)c2cc(C(=O)N3CCCCC3)c3cc(OCc4nc5ccccc5s4)ccc3n2)CC1 [Example 58, 1-(6-(benzo[d]thiazol-2-ylmethoxy)-4-(piperidine-1-carbonyl)quinoline-2-carbonyl)-4-(1H-pyrazol-1-yl)piperidine-4-carbonitrile] | 33.7 |
| N#Cc1cc(F)ccc1COc1ccc2nc(C(=O)N3CCC(C#N)(c4ccccc4)CC3)cc(C(=O)N3CCCCC3)c2c1 [Example 45, 1-(6-((2-cyano-4-fluoro-benzyl)oxy)-4-(piperidine-1-carbonyl)quinoline-2-carbon-yl)-4-phenylpiperidine-4-carbonitrile] | 36.9 |
| O=C(c1cc(C(=O)N2CCCC(F)(F)C2)c2cc(OCc3nc4ccccc4s3)ccc2n1)N1CCC(n2cccn2)CC1 [Example 53, (4-(1H-pyrazol-1-yl)piperidin-1-yl)(6-(benzo[d]thiazol-2-ylmethoxy)-4-(3,3-difluoro-piperidine-1-carbonyl)quin-olin-2-yl)methanone] | 62.6 |
| CC(=O)NC1CC2(CCN(C(=O)c3cc(C(=O)N4CCCCC4)c4cc(OCc5nc6ccccc6s5)ccc4n3)CC2)C1 [Example 73, N-(7-(6-(benzo[d]thiazol-2-ylmethoxy)-4-(piperi-dine-1-carbonyl)quinoline-2-carbonyl)-7-azaspiro-[3.5]nonan-2-yl)acetamide] | 38.5 |

Further lines, results first:

| EC50 [nM] | SMILES |
| --- | --- |
| 49.9 | COc1ccc(COc2ccc3nc(C(=O)N4CCC(C#N)(c5ccccc5)CC4)cc(C(=O)N4CCCCC4)c3c2)c(Cl)c1 [Example 40, 1-(6-((2-chloro-4-methoxy-benzyl)oxy)-4-(piperidine-1-carbonyl)quinoline-2-carbon-yl)-4-phenylpiperidine-4-carbonitrile] |
| 31 | O=C(c1cc(C(=O)N2CCCCC2)c2cc(OCc3nc4ccccc4s3)ccc2n1)N1CCC(c2cc[nH]n2)CC1 [Example 63, (4-(1H-pyrazol-3-yl)piperi-din-1-yl)(6-(benzo[d]-thiazol-2-ylmethoxy)-4-(piperidine-1-carbonyl)-quinolin-2-yl)methanone] |
| 44.6 | N#Cc1ccc(F)cc1COc1ccc2nc(C(=O)N3CCC(C#N)(c4ccccc4)CC3)cc(C(=O)N3CCCCC3)c2c1 [Example 44, 1-(6-((2-cyano-5-fluoro-benzyl)oxy)-4-(piperidine-1-carbonyl)quinoline-2-carbon-yl)-4-phenylpiperidine-4-carbonitrile] |
| 16.5 | CC(N1CCN(C(=O)c2cc(C(=O)N3CCCCC3)c3cc(OCc4nc5ccccc5s4)ccc3n2)CC1)C(F)(F)F (stereo not shown) [Example 66, (6-(benzo[d]thiazol-2-yl-methoxy)-2-(4-(1,1,1-trifluoropropan-2-yl)-piperazine-1-carbonyl)-quinolin-4-yl)(piperidin-1-yl)methanone] |
| 44.9 | N#CC1(c2ccccc2)CCN(C(=O)c2cc(C(=O)N3CCCCC3)c3cc(OCc4ccccn4)ccc3n2)CC1 [Example 48, 4-phenyl-1-(4-(piperidine-1-carbonyl)-6-(pyridin-2-yl-methoxy)quinoline-2-carbon-yl)piperidine-4-carbonitrile] |
| 32.9 | N#Cc1ccc(COc2ccc3nc(C(=O)N4CCC(n5cccn5)CC4)cc(C(=O)N4CCCCC4)c3c2)c(F)c1 [Example 16, 4-(((2-(4-(1H-pyrazol-1-yl)-piperidine-1-carbonyl)-4-(piperidine-1-carbonyl)-quinolin-6-yl)oxy)methyl)-3-fluorobenzonitrile] |
| 39.6 | N#Cc1ccc(COc2ccc3nc(C(=O)N4CCC(n5cccn5)CC4)cc(C(=O)N4CCCCC4)c3c2)cc1 [Example 9, 4-(((2-(4-(1H-pyrazol-1-yl)-piperidine-1-carbonyl)-4-(piperidine-1-carbonyl)-quinolin-6-yl)oxy)methyl) benzonitrile] |
| 38.5 | N#CC1(c2ccccc2)CCN(C(=O)c2cc(C(=O)N3CCCCC3)c3cc(OCc4ccc(F)cc4F)ccc3n2)CC1 [Example 43, 1-(6-((2,4-difluorobenzyl)-oxy)-4-(piperidine-1-carbon-yl)quinoline-2-carbonyl)-4-phenylpiperidine-4-carbonitrile] |
| 34.3 | O=C(c1cc(C(=O)N2CCCCC2)c2cc(OCc3ccc(Cl)cc3)ccc2n1)N1CCC(n2cccn2)CC1 [Example 21, (4-(1H-pyrazol-1-yl)piperidin-1-yl)(6-((4-chlorobenzyl)oxy)-4-(piperidine-1-carbonyl)quin-olin-2-yl)methanone] |
| 23.7 | Cn1nnc2cc(COc3ccc4nc(C(=O)N5CCC(n6cccn6)CC5)cc(C(=O)N5CCCCC5)c4c3)ccc21 [Example 15, (4-(1H-pyrazol-1-yl)piperidin-1-yl)(6-((1-methyl-1H-benzo-[d][1,2,3]triazol-5-yl)methoxy)-4-(piperidine-1-carbonyl)-quinolin-2-yl)methanone] |
| 48.6 | O=C(c1cc(C(=O)N2CCCCC2)c2cc(OCc3nc4ccccc4s3)ccc2n1)N1CCCN(Cc2nccs2)CC1 [Example 71, 4-(6-(benzo[d]thiazol-2-yl-methoxy)-4-(piperidine-1-carbonyl)quinoline-2-car-bonyl)-1-(thiazol-2-yl-methyl)-1,4-diazepan-1-ium 2,2,2-trifluoroacetate] |
| 9.6 | CC1(O)CCN(C(=O)c2cc(C(=O)N3CCCCC3)c3cc(OCc4ccc5c(c4Cl)COC5=O)ccc3n2)C1 (racemic) [Example 4, rac-4-chloro-5-(((2-(3-hydroxy-3-methylpyrrolidine-1-carbonyl)-4-(piperidine-1-carbonyl)quinolin-6-yl)oxy)methyl)isobenzofuran-1(3H)-one] |
| 13.8 | N#CC1(c2ccccc2)CCN(C(=O)c2cc(C(=O)N3CCCCC3)c3cc(OCc4cn5ccccc5n4)ccc3n2)CC1 [Example 47, 1-(6-(imidazo[1,2-a]pyridin-2-ylmethoxy)-4-(piperidine-1-carbonyl)quinoline-2-carbonyl)-4-phenylpiperi-dine-4-carbonitrile] |
